# Assay results: patent US10961222B2, “Chemical compound of isocitrate dehydrogenase inhibitor, and application thereof” (NANJING SANHOME PHARMACEUTICAL CO., LTD., priority 2016, dated 2021)
# Molecular target: T1, U87-MG cell line of overexpressed mutant IDH2 (R140Q) (Homo sapiens, UniProt P48735, R140Q)
# T1 construct: expressed in transfected cells
# T1 sequence (P48735 40-452 R140Q): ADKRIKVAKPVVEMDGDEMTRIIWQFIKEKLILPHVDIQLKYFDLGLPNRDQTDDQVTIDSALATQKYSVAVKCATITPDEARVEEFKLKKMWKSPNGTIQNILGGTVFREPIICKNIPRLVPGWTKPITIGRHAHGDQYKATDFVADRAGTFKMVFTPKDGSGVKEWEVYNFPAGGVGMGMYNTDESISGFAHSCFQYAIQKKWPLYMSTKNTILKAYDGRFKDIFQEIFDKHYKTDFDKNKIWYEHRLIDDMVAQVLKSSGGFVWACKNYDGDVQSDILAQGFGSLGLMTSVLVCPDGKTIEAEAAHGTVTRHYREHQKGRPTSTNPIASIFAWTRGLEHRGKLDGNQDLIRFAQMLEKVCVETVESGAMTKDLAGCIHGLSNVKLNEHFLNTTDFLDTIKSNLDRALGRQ
# Assay: Cell activity in vitro: 2-HG in culture supernatant of U87-MG (IDH2-R140Q) cells by LC-MS/MS
# Type: cell-based
# Procedure: 1.2 Cells: human glioblastoma cell line U87-MG, purchased from the American Type Culture Collection (ATCC);
# Cell recovery: U87-MG (IDH2-R140Q) cells and U87-MG cells were put into a 37° C. water bath, then transferred to 15 mL of pre-warmed medium, centrifuged at 1000 rpm for 5 minutes, and the medium was discarded. The cells were resuspended in 15 mL of fresh medium, transferred to a T75 flask and cultured in a 37° C. incubator with 5% CO2. After 24 hours, the medium was changed to fresh medium.
# Cell passage: The above-mentioned recovered cells were transferred to a 50 mL sterile centrifuge tube, centrifuged at 1000 rpm for 5 minutes, and the medium was discarded. The cells were resuspended evenly and counted. The cell density was adjusted appropriately in a 15 mL fresh medium, and then added to T75 culture flask. The culture flask was incubated in an incubator with 5% CO2 at 37° C.
# After cells grown to a relatively high density in the culture dish, the cells were trypsinized, resuspended in medium (MEM+10% FBS), and counted. After adjusting the cell concentration, the resuspended cells were seeded in a 96-well plate at 5×10^3 cells per well. After inoculation, the cells were cultured for 24 hours until the cells adhered. The medium were sucked out, and the medium containing gradient concentration of compound was added, 100 μL per well. The cells were further cultured for 72 hours. The s 20 μL of upernatant was taken and put into a 2 mL 96-well sample-processing plate. 480 μL of dilution solution was added and shaken for mixing, and then centrifuged at 4500 rpm for 5 minutes. 200 μL of supernatant was transferred for LC-MS/MS injection analysis.
# Column: Shim-pack XR-ODS 30L*2.0; mobile phase: acetonitrile-0.2% ammonia, 5 mM ammonium acetate aqueous solution; column temperature: 30° C.; flow rate: 0.4 mL/min; gradient elution conditions are as follows: […]
# Atmospheric […] chemical ionization (APCI) was used. Source parameters was set as follows: IonSpray Voltage/IS-4500V; auxiliary gas 1 (Ion Source Gas 1/GS 1, N2), 55Arb; auxiliary gas 2 (Ion Source Gas 2, N2), 55Arb; auxiliary gas heating temperature (Temperature/TEM), 500° C.; curtain gas/CUR, 25Arb; collision gas/CAD, N2, 8 Pa.
# Multi-ion reaction monitoring (MRM) in negative ion mode (Negative) was used. […] The internal standard (IS) MRM parameters: parent ion (Q 1 Mass), 178.0 Da; daughter ion (Q3 Mass), 149.0 Da; Decluster Potential (DP), −51V; collision voltage (Collision Energy/CE), −17 eV
# By determining the 2-HG content in the cell culture supernatant of each well using LC-MS/MS, the mutant enzyme activity (2-HG remaining compared to untreated %) was calculated. The calculation formula: 2-HG remaining compared to untreated %=(Measured 2-HG level—U87-MG control 2-HG level)/(Untreated 2-HG level—U87-MG control 2-HG level)×100. […] Data were processed by GraphPad Prism v5.0 software and fitted to obtain IC50.
compound,measurement,value
"CC(C)(O)CNc1nc(Nc2ccnc(C(F)(F)F)c2)nc(-c2cccc(C(F)(F)F)n2)n1 [AG-221, 2-methyl-1-(4-(6-(trifluoromethyl)pyridin-2-yl)-6-(2-(trifluoromethyl)pyridin-4-ylamino)-1,3,5-triazin-2ylamino)propan-2-ol, reference compound]",IC50,30.2 nM
